Reference: patent US6686355B2, “Biphenyl sulfonamides useful as matrix metalloproteinase inhibitors” (Warner-Lambert Company, priority 2001, dated 2004)

Legend:
Type in all cases: biochemical
[1] = biological target: MMP-14CD (catalytic domain of MMP-14) (Homo sapiens, UniProt P50281); assay: Thiopeptolide hydrolysis assay, MMP-14CD; settings: thiopeptolide substrate, HEPES pH 7.0, 22° C.
Text: (§1) The assays measure the amount by which a test compound reduces the hydrolysis of a thiopeptolide substrate catalyzed by a matrix metalloproteinase enzyme. Such assays are described in detail by Ye et al., in Biochemistry, 1992;31(45):11231-11235, which is incorporated herein by reference.
(§2) Thiopeptolide substrates show virtually no decomposition or hydrolysis at or below neutral pH in the absence of a matrix metalloproteinase enzyme. A typical thiopeptolide substrate commonly utilized for assays is Ac-Pro-Leu-Gly-thioester-Leu-Leu-Gly-OEt. A 100 μL assay mixture will contain 50 mM of N-2-hydroxyethylpiperazine-N′-2-ethanesulfonic acid buffer (“HEPES”) at pH 7.0, 10 mM CaCl2, 100 μM thiopeptolide substrate, and 1 mM 5,5″-dithio-bis-(2-nitro-benzoic acid) (DTNB). The thiopeptolide substrate concentration may be varied from, for example, 10 to 800 μM to obtain Km and Kcat values. The change in absorbance at 405 nm is monitored on a Thermo Max microplate reader (Molecular Devices, Menlo Park, Calif.) at room temperature (22° C.). The calculation of the amount of hydrolysis of the thiopeptolide substrate is based on E412=13600 M^−1 cm^−1 for the DTNB-derived product 3-carboxy4-nitrothiophenoxide. Assays are carried out with and without matrix metalloproteinase inhibitor compounds, and the amount of hydrolysis is compared for a determination of inhibitory activity of the test compounds.
(§3) Several representative compounds have been evaluated for their ability to inhibit various matrix metalloproteinase enzymes. In Table I, MMP-1FL refers to full length interstitial collagenase; MMP-2FL refers to full length Gelatinase A; MMP-3CD refers to the catalytic domain of stromelysin-1; MMP-7FL refers to full length matrilysin; MMP-9FL refers to full length Gelatinase B; MMP-13CD refers to the catalytic domain of collagenase 3; and MMP-14CD refers to the catalytic domain of MMP-14. Test compounds were evaluated at various concentrations in order to determine their respective IC50 values, the micromolar concentration of compound required to cause a 50% inhibition of the catalytic activity of the respective enzyme.

[2] = biological target: T1, MMP-7FL (full length matrilysin) (Homo sapiens, UniProt P09237); assay: Thiopeptolide hydrolysis assay, MMP-7FL; settings: thiopeptolide substrate, HEPES pH 7.0, 22° C.
T1 sequence (P09237 95-267): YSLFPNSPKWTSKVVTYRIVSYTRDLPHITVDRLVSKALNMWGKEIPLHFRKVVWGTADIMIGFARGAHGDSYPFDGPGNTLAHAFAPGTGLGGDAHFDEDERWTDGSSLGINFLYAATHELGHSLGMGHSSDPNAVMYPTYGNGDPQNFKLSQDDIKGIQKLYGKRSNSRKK
Text: as §1, §2, §3

[3] = biological target: T2, MMP-1FL (full length interstitial collagenase) (Homo sapiens, UniProt P03956); assay: Thiopeptolide hydrolysis assay, MMP-1FL; settings: thiopeptolide substrate, HEPES pH 7.0, 22° C.
T2 sequence (P03956 100-469): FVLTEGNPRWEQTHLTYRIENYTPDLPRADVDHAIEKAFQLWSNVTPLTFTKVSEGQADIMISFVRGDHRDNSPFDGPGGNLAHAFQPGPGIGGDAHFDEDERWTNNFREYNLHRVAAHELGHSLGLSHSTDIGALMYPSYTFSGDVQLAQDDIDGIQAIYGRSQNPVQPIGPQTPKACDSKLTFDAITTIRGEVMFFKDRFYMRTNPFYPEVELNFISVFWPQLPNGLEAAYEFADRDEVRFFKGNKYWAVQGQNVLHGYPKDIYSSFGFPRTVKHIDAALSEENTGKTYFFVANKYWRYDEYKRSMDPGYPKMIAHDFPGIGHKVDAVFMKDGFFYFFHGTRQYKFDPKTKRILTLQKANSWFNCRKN
Text: as §1, §2, §3

[4] = biological target: MMP-13CD (catalytic domain of collagenase 3) (Homo sapiens, UniProt P45452); assay: Thiopeptolide hydrolysis assay, MMP-13CD; settings: thiopeptolide substrate, HEPES pH 7.0, 22° C.
Text: as §1, §2, §3

[5] = biological target: T3, MMP-2FL (full length Gelatinase A) (Homo sapiens, UniProt P08253); assay: Thiopeptolide hydrolysis assay, MMP-2FL; settings: thiopeptolide substrate, HEPES pH 7.0, 22° C.
T3 sequence (P08253 110-660): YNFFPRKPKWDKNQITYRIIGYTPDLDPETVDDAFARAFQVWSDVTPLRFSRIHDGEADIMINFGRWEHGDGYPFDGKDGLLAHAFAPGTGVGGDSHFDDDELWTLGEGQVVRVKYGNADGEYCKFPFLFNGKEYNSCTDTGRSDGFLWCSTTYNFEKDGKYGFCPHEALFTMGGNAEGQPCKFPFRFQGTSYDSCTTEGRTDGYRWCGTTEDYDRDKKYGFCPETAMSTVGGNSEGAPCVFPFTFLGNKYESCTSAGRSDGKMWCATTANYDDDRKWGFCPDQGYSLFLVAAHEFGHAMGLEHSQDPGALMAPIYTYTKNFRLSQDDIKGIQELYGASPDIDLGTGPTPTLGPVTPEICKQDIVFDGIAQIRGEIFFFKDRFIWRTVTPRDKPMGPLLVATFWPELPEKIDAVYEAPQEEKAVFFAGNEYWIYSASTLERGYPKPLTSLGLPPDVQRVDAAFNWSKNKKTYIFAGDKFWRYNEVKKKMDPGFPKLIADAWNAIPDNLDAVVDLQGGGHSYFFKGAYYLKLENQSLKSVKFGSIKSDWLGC
Text: as §1, §2, §3

[6] = biological target: MMP-3CD (catalytic domain of stromelysin-1) (Homo sapiens, UniProt P08254); assay: Thiopeptolide hydrolysis assay, MMP-3CD; settings: thiopeptolide substrate, MES pH 6.0
Text: as §1, §2, §3
It should be appreciated that the assay buffer used with MMP-3CD was 50 mM of 2-morpholinoethanesulfonic acid monohydrate (“MES”) at pH 6.0 rather than the HEPES buffer at pH 7.0 described above.

[7] = biological target: MMP-9FL (full length Gelatinase B) (Homo sapiens, UniProt P14780); assay: Thiopeptolide hydrolysis assay, MMP-9FL; settings: thiopeptolide substrate, HEPES pH 7.0, 22° C.
Text: as §1, §2, §3

MMP-12CD = biological target: T4, MMP-12CD (Homo sapiens, UniProt P39900); assay: Thiopeptolide hydrolysis assay, MMP-12CD; settings: thiopeptolide substrate, HEPES pH 7.0, 22° C.
T4 construct: MMP-12CD
Text: as §1, §2, §3

Sequence of MMP-9FL (full length Gelatinase B) (P14780 94-707, species assumed): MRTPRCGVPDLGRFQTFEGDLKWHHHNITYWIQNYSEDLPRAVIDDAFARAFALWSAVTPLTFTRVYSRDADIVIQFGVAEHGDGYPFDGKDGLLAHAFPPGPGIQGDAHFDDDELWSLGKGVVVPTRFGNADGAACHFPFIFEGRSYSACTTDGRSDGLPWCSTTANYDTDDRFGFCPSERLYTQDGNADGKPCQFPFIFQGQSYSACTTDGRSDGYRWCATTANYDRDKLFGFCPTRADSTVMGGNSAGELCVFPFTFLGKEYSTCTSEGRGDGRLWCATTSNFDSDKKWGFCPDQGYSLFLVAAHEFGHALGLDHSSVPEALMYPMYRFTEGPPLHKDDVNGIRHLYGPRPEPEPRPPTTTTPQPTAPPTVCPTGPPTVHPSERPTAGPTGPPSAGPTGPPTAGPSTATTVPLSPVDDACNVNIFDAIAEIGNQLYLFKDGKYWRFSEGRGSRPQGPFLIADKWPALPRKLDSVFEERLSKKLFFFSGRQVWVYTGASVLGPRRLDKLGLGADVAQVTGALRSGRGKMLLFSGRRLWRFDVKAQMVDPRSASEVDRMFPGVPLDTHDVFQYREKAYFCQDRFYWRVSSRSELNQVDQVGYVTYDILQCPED
Sequence of MMP-3CD (catalytic domain of stromelysin-1) (P08254 100-272 limits assumed): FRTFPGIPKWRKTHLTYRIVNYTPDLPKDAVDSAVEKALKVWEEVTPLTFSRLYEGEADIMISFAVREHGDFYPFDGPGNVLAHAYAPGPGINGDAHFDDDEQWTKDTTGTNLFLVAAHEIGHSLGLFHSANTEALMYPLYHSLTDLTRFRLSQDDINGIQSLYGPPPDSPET
T4 sequence (P39900 106-263 limits assumed): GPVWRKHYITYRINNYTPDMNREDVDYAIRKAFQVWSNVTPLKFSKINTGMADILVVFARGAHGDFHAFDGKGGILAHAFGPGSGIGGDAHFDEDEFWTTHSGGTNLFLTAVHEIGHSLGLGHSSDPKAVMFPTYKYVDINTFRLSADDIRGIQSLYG

Structure (SMILES)	IC50 [1]	IC50 [2]	IC50 [3]	IC50 [4]	IC50 [5]	IC50 [6]	IC50 [7]	IC50 (MMP-12CD)
CC1(C)SCCN(S(=O)(=O)c2ccc(-c3ccc(Br)cc3)cc2)[C@H]1C(=O)O [Example 1, (S)-4-(4′-Bromo-biphenyl-4-sulfonyl)-2,2-dimethyl-thiomorpholine-3-carboxylic acid]	0.048 µM	10 µM	3.1 µM	0.016 µM	0.006 µM	0.003 µM	0.26 µM	–
CN(C)c1ccc(-c2ccc(S(=O)(=O)N3CCSC(C)(C)[C@@H]3C(=O)O)cc2)cc1 [Example 54]	0.19 µM	–	11.3 µM	0.013 µM	0.024 µM	0.03 µM	0.17 µM	0.0103 µM
CC1(C)[C@H](C(=O)O)N(S(=O)(=O)c2ccc(-c3ccc(Br)cc3)cc2)CCS1(=O)=O [Example 3, (S)-4-(4′-Bromo-biphenyl-4-sulfonyl)-2,2-dimethyl-1,1-dioxo-thiomorpholine-3-carboxylic acid]	0.059 µM	8.8 µM	1.7 µM	0.032 µM	0.012 µM	0.005 µM	0.78 µM	–
CC1(C)SCCN(S(=O)(=O)c2ccc(-c3ccc(CO)cc3)cc2)[C@H]1C(=O)O [Example 5, (S)-4-(4′-Hydroxymethyl-biphenyl-4-sulfonyl)-2,2-dimethyl-thiomorpholine-3-carboxylic acid]	0.24 µM	10 µM	1.5 µM	0.047 µM	0.018 µM	0.027 µM	0.063 µM	–
CC1(C)[C@H](C(=O)NO)N(S(=O)(=O)c2ccc(-c3ccc(Br)cc3)cc2)CCS1(=O)=O [Example 4, (S)-4-(4′-Bromo-biphenyl-4-sulfonyl)-2,2-dimethyl-1,1-dioxo-thiomorpholine-3-carboxylic acid hydroxyamide]	0.002 µM	0.031 µM	0.005 µM	0.001 µM	0.001 µM	0.003 µM	0.004 µM	–
CC1(C)SCCN(S(=O)(=O)c2ccc(-c3ccc(OC(F)(F)F)cc3)cc2)[C@H]1C(=O)O [Example 45, (S)-2,2-Dimethyl-4-(4′-trifluoromethoxy-biphenyl-4-sulfonyl)-thiomorpholine-3-carboxylic acid]	0.128 µM	–	5.75 µM	–	0.0027 µM	0.004 µM	0.098 µM	0.001 µM
CC1(C)SCCN(S(=O)(=O)c2ccc(-c3ccc4c(c3)OCO4)cc2)[C@H]1C(=O)O [Example 33, (S)-4-(4-1,3-Benzodioxol-5-yl-benzenesulfonyl)-2,2-dimethyl-thiomorpholine-3-carboxylic acid]	–	–	–	0.0443 µM	0.0185 µM	0.0148 µM	3.15 µM	–
COc1ccc(-c2ccc(S(=O)(=O)N3CCSC(C)(C)[C@@H]3C(=O)O)cc2)cc1C=O [Example 48, (S)-4-(3′-Formyl-4′-methoxy-biphenyl-4-sulfonyl)-2,2-dimethyl-thiomorpholine-3-carboxylic acid]	0.037 µM	–	–	2.04 µM	1.55 µM	0.775 µM	25.8 µM	–
CC(C)c1ccc(-c2ccc(S(=O)(=O)N3CCSC(C)(C)[C@@H]3C(=O)O)cc2)cc1 [Example 44, (S)-4-(4′-Isopropyl-biphenyl-4-sulfonyl)-2,2-dimethyl-thiomorpholine-3-carboxylic acid]	–	–	–	0.02 µM	0.015 µM	0.0088 µM	0.37 µM	–
CC1(C)SCCN(S(=O)(=O)c2ccc(-c3ccc(Br)cc3)cc2)[C@H]1C(=O)NO [Example 2, (S)-4-(4′-Bromo-biphenyl-4-sulfonyl)-2,2-dimethyl-thiomorpholine-3-carboxylic acid hydroxyamide]	0.001 µM	0.037 µM	0.002 µM	0.001 µM	0.002 µM	0.002 µM	0.001 µM	–
